Like-named read-outs stand apart in the source and are kept apart here.
Columns and labels:
JNK2 = JNK2 (Homo sapiens, UniProt P45984); assay: JNK2 inhibition; format: biochemical; conditions: read-out: inhibitor of JNK2, IC50
COX2 = molecular target: T1, COX2 (Homo sapiens, UniProt P35354); assay: COX2 inhibition; format: biochemical; conditions: read-out: inhibitor of COX2, IC50
T1 sequence (P35354 18-604): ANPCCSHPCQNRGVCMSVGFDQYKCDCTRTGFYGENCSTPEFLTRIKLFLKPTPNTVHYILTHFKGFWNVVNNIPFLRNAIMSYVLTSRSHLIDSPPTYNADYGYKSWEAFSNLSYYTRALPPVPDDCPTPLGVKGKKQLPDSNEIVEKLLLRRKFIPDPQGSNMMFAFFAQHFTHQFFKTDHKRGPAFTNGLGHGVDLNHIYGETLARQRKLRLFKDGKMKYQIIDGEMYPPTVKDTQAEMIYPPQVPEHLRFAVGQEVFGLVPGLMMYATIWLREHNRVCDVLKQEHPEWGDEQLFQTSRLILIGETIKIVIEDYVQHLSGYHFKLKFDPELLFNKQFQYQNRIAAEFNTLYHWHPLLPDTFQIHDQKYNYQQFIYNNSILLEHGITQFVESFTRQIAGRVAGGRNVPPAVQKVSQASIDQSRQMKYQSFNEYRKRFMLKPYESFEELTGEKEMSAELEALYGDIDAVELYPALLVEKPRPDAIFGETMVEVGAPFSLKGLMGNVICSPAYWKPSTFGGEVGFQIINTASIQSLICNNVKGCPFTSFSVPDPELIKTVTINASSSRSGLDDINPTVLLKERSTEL

[1] = tested on: aggrecan and collagen type 2 mRNA in bovine AF and NP cells; assay: 3D in vitro disc cell model: Taqman gene expression; format: cell-based; conditions: 10 ng/ml IL-1β; inhibitor 1 μM, rhGDF-5 200 ng/ml
Text: (§1) Three-dimensional in vitro annulus fibrosis (AF) and nucleus pulposus (NP) models were established to investigate proteoglycan modulation and changes in gene expression in response to inflammatory cytokines such as interleukin-1 (e.g., IL-1β) and potential therapeutic agents such as growth and differentiation factor (GDF-5), and p38 MAP kinase inhibitors. AF and NP cells from bovine caudal discs were isolated by enzymatic digestion and seeded (2×10^6 cells/cm^2) onto Millipore CM filters coated with Collagen Type II and cultured in DMEM/20% heat-inactivated FBS, 100 ug/ml ascorbic acid and 5 ng/ml TGFβ1. […] Results were evaluated by histology (Tol. Blue staining was used to observe matrix production). Dimethylmethylene blue (DMMB) was used to detect sulphated glycosaminoglycans in a GAG/DNA assay. Taqman analysis was performed on aggrecans (AGG), collagen type 1 (col-1), collagen type 2 (col-2), and MMP 3, MMP 9 and MMP 13. In FIGS. 19A-C and 20A-C, annulus fibrosus and nucleus pulposus cells from bovine caudal discs were isolated by enzymatic digestion and seeded (2×10^6 cells/cm2) onto Millipore CM filters coated with Collagen Type II and cultured in DMEM/20% heat-inactivated FBS/100 ug/ml ascorbic acid and 5 ng/ml TGF-β1.

[2] = tested on: LPS-induced TNF in human peripheral blood mononuclear cells (hPBMC); assay: LPS-induced TNF in hPBMC; format: cell-based; conditions: read-out: inhibitor of LPS-induced TNF hPBMC, IC50
[3] = tested on: PGE2 synthesis in injured bovine cartilage explants; assay: Drop tower model: PGE2 synthesis in injured cartilage explants; format: cell-based; conditions: for inhibition at 1 µM / inhibition at 10 µM: Bos taurus, injured cartilage explants; for effect on PGE2 synthesis (in words): drop tower model, cocktail of cytokines
Procedure: In the second method, the explants were cultured at 37° C., 5% CO2 either in stimulated or non-stimulated conditioned medium as described above or in defined medium containing DMEM supplemented with 1% FCS, 1× insulin-transferrin-sodium selenite media supplement and Antibiotics-Antimycotics in the presence or absence of a cocktail of cytokines containing 10 ng/ml of IL-1β, 100 ng/ml of TNFα and 5 ng/ml of IFN-γ. The compounds were solubilized in H2O, Ethanol or DMSO (10^−2 M) according to suppliers' instructions and further diluted with either conditioned medium stimulated with or without LPS to the required concentrations. DMSO concentrations in the culture media never exceeded 1%. This concentration of DMSO has no effect on cartilage proteoglycan metabolism in response to cytokines. The injured and noninjured cartilage explants were treated with compound-containing medium for three to five days. The specimens were first treated with compounds at desired concentrations at 37° C. for one hour and then incubated for three to five days in the absence or presence of the cocktail of cytokines. At the end of the incubation, media and cartilage samples were harvested and frozen for further analysis.
PGE2 was measured with STAT-Prostaglandin E2 EIA ELISA kit (Cayman Biochemicals), as described in Example III above. The antibody-PGE2 complex binds to a goat polyclonal anti-mouse IgG that has been previously attached to the well. After washing to remove any unbound reagents, para-nitrophenyl phosphate (pNPP) was added to the well. The product of this enzymatic reaction absorbs strongly at 412 nm. Because of the large range in response to IL-1β and other cytokines, PGE2 values were converted to log scale prior to doing t-tests.

[4] = tested on: annulus fibrosus and nucleus pulposus cells from bovine caudal discs treated with IL-1β; assay: 3D in vitro disc cell model: GAG (DMMB); format: cell-based
Text: as §1

p38a MAP kinase = p38a MAP kinase (Homo sapiens, UniProt Q16539); assay: Binding to p38a MAP kinase; conditions: read-out: binds p38a MAP kinase, Kd
JNK = JNK inhibition; format: biochemical; conditions: read-out: inhibitor of JNK, IC50
[5] = molecular target: inactivated p38 MAP kinase (Homo sapiens, UniProt Q16539); assay: Binding to inactivated p38 MAP kinase; conditions: read-out: binds to inactivated p38 MAP kinase, Kd
[6] = tested on: LPS-induced IL-1 in hPBMC; assay: LPS-induced IL-1 in hPBMC; format: cell-based, human; conditions: read-out: inhibitor of LPS-induced IL-1 in hPBMC, IC50
CYP2C9 = CYP2C9 (Homo sapiens, UniProt P11712); assay: CYP2C9 inhibition; format: in vitro ADME
Rat PK = format: in vivo
Monkey PK = conditions: in vivo, female monkey
6 CYP450 = assay: Inhibition of 6 CYP450; format: in vitro ADME

Chain of CYP2C9 (P11712 whole entry): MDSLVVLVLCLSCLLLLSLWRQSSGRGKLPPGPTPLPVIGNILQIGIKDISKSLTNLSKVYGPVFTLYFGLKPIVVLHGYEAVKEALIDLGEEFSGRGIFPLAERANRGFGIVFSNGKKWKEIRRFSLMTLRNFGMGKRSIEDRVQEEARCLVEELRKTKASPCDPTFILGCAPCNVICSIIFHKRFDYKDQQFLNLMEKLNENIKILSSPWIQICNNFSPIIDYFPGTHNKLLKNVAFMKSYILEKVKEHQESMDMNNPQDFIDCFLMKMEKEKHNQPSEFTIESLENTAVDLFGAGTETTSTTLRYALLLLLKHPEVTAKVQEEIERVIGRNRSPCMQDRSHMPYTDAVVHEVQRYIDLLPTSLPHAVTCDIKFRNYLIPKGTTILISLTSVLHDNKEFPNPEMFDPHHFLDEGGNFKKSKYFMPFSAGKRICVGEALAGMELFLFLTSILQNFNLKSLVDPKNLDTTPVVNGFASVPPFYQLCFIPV
Chain of JNK2 (P45984 whole entry, species assumed): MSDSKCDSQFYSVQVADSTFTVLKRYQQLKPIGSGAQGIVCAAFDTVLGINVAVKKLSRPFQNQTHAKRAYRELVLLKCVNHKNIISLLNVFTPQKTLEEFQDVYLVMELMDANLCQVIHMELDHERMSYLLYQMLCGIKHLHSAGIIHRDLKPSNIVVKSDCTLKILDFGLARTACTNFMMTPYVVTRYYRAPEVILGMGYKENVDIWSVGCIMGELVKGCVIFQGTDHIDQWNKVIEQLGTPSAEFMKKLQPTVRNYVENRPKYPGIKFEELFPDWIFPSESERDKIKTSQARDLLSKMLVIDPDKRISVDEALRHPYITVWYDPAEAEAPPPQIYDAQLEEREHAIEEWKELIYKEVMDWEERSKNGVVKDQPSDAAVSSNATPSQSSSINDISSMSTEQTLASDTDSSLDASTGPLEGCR
Chain of p38a MAP kinase (Q16539 whole entry): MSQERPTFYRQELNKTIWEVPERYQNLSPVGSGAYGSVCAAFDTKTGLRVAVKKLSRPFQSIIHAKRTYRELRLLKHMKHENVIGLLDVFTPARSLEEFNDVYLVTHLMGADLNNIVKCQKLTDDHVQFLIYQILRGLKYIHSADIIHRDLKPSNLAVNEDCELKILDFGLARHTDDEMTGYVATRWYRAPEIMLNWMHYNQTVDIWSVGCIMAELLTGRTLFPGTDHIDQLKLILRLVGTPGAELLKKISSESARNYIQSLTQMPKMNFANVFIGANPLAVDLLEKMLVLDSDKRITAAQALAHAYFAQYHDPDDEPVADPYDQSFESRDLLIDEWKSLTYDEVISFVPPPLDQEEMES
Chain of inactivated p38 MAP kinase (Q16539 whole entry): as above

For `OCCC#Cc1nc(-c2ccc(F)cc2)c(-c2ccncc2)n1CCCc1ccccc1` [JNJ 3026582 (RWJ 67657), 4-[4-(4-fluorophenyl)-1-(3-phenylpropyl)-5-(4-pyridinyl)-1H-imidazol-2-yl]-3-butyn-1-ol], the IC50 (JNK2) was 80 nM, the IC50 (COX2) was over 10000 nM and the “gene expression of Agg and Col 2 (in words)” value [1] was “restored”. The IC50 ([2]; Homo sapiens, PBMC) was 4 nM, the inhibition at 1 µM [3] was 33% and the inhibition at 10 µM [3] was 90%. For the same compound, the “effect on PGE2 synthesis (in words)” value [3] was “dose-dependently inhibited”, the “amount of GAG in the tissue (in words)” value ([4]; 10 ng/ml IL-1β, inhibitor 1 μM, rhGDF-5 200 ng/ml) was “restored” and the “GAG release (in words)” value ([4]; Example V, IL-1β-treated disc cells) was “prevented GAG release in a dose dependent manner”. For the same compound, the Kd (p38a MAP kinase) was 9 nM.

In the case of `C[C@H](Nc1nccc(-c2c(-c3ccc(F)cc3)nc3nc(N)ccn23)n1)c1ccccc1` [JNJ 7583979 (RWJ 351958)], the IC50 (COX2) is reported as over 10000 nM and the IC50 (JNK) is reported as 12 nM.

Compound `CC(=O)N1CCN(c2c(-c3ccncc3)c(-c3ccc(F)cc3)c(C#N)n2C)CC1` [JNJ 17089540 (RWJ 669307)] has an IC50 (COX2) of over 10000 nM, a Kd [5] of 100 nM and an IC50 [6] of 250 nM. For the same compound, the IC50 [2] was 220 nM and the “effect on PGE2 synthesis (in words)” value [3] was “dose-dependently inhibited”.

In the case of `C[C@@H]1CN(Cc2ccc(F)cc2)[C@@H](C)CN1C(=O)c1cc2cc(C(=O)C(=O)N(C)C)[nH]c2cc1Cl` [SCIO-282 (SD 282)], the IC50 (CYP2C9) is reported as 500 nM, the “Rat (F) PK, F %” value (Rat PK; female rat) is reported as 46% and the “effect on PGE2 synthesis (in words)” value [3] is reported as “dose-dependently inhibited”.

Work on `C[C@@H]1CN(Cc2ccc(F)cc2)[C@@H](C)CN1C(=O)c1cc2c(C(=O)C(=O)N(C)C)cn(C)c2cc1Cl` [SCIO-469 (SD 469)] yielded a bioavailability (Monkey PK; read-out: Monkey (F) PK, F %) of 12%, a half-life (Monkey PK; read-out: Monkey (F) PK, t1/2 (converted)) of 1.3 h and a half-life (Rat PK; in vivo, female rat, read-out: Rat (F) PK, t1/2 (converted)) of 1 h. For the same compound, the bioavailability (Rat PK; in vivo, male rat, read-out: Rat (M) PK, F %) was 15%, the half-life (Rat PK; in vivo, male rat, read-out: Rat (M) PK, t1/2 (converted)) was 0.5 h and the “effect on PGE2 synthesis (in words)” value [3] was “inhibited”. The IC50 (6 CYP450) was over 1000 nM and the IC50 (6 CYP450; human, Table 2) was over 1000 nM.

`COc1ccc(-n2nc(CCC(=O)N(C)O)cc2-c2ccc(Cl)cc2)cc1` [Tepoxalin, reference compound] showed an inhibition at 1 µM [3] of 77% and an inhibition at 10 µM [3] of 90%.

Reference: US20090162351A1, “Transdiscal administration of inhibitors of p38 MAP kinase” (DePuy Spine, Inc., priority 2007, published 2009)
